The values below come from US20220289732A1, “HETEROCYCLIC WDR5 INHIBITORS AS ANTI-CANCER COMPOUNDS” (NOVARTIS AG, priority 2019, published 2022).

One test has as its target WDR5 (Homo sapiens, UniProt P61964). As to the kind of experiment: WDR5 HTRF binding assay. Particulars: read-out: (a) WDR5 HTRF Pep Val v.1[Inhibitor/IC50]Qualified AC50. Here is the method: The compounds were serially diluted 3-fold in DMSO to obtain a total of twelve concentrations. Then the test compounds at each concentration (90 nL of each) were transferred by Mosquito in the white Proxiplate plus 384-well microplate (Perkin Elmer). The assay mixture (typical 9 μL) containing 6 nM WDR5 and 20 nM Biotin-MLL1 WIN peptide (3762-3773) in the assay buffer (25 mM Hepes, pH7.5, 0.05% Tween 20, 2 mM DTT, 100 mM NaCl, 0.1% BSA) were added to the wells. For counter assay, a 9 μL solution of 15 nM Biotin-PEG-His peptide was added into the wells. After 20 min incubation at rt, a 3 μL detection solution containing 14 μg/ml Phycolink Streptavidin Allophycocyanin (Prozyme), 2 nM Anti-His-Eu (PerkinElmer) in assay buffer was then added. After 1 hr incubation, the plate was read in the EnVision reader (PerkinElmer) using the HTRF protocol (The protocol set-up: Lance/Delfia dual enhancer mirror, excitation at 320 UV2 (TRF), emission at APC665, 2nd emission at EuropiμM 615). HTRF signals were normalized based on the reading coming from the positive (maximum signal control) and negative controls (minimum signal control) to give percentage of activities left. The data were then fit to a dose response equation using the program Helios (Novartis) to get the IC50 values. Helios is a Novartis in-house assay data analysis software using the methods described by Normolle, D. P., Statistics in Medicine, 12:2025-2042 (1993); Formenko, I. et al., Computer Methods and programs in Biomedicine, 82, 31-37 (2006); Sebaugh, J. L., Pharmaceutical Statistics, 10:128-134 (2011); Kelly, C. et al., Biometrics, 46(4):1071-1085 (1990); and Kahm, M, et al., Journal of Statistical Software, 33(7):(2010) (grofit: Fitting Biological Growth Curves with R, pages 1-21, available at http://www.jstatsoft.org/).
On the technique in general: Time-resolved FRET reads energy transfer from a long-lived donor to a nearby acceptor.

Test [1] addresses wild type MLL1 four-member complex (MLL1-4C) (Homo sapiens, UniProt P61964). As to the kind of experiment: MLL1 LC-MS assay (SAH production). The following applies: read-out: (b) MLL LCMS Peptide Val.v.1 Qualified AC50. It counts as biochemical. Here is the method:
The compounds of the present disclosure were serially and separately diluted 3-fold in DMSO to obtain a total of eight or twelve concentrations. Then the test compounds at each concentration (120 nL of each) were transferred by Mosquito into white Proxiplate plus 384-well microplate (PerkinElmer). Solutions (6 μL) of 60 nM wild type MLL1 four-member complex (MLL1-4C) and 5 μM SAM in the reaction buffer (20 mM Tris-HCl, pH8.0, 0.01% Tween 20, 1 mM DTT, 10 mM MgCl2, 0.01% BSA) were added to the wells that were then incubated with the test compound for 20 min. A 6 μL solution of 20 μM of the peptide substrate H3K4me0 (histone H3[1-21]-Biotin) in the reaction buffer was added to initiate each reaction. The final components in the reaction solution include 30 nM MLL1-4C, 2.5 μM SAM, and 10 μM H3K4me0 with varying concentration of the compounds. A positive control consisted of 30 nM MLL1-4C, 2.5 μM SAM, and 10 μM substrate in the absence of the test compound, and a negative control consisted of 2.5 μM SAM, and 10 μM substrate only. Each reaction was incubated at rt for 120 min, then stopped by addition of 3 μL per of quench solution (2.5% TFA with 320 nM d4-SAH). The reaction mixture was centrifuged (Eppendorf centrifuge 5810, Rotor A-4-62) for 2 min at 2000 rmp. The SAH production from the enzymatic assays were monitored by LC-MS/MS on an API 4000 triple quadrupole mass spec with Turbolon Spray (Applied Biosystem) coupled with Prominenece UFLC (Shimazu). The level of SAH production were then normalized based on the values coming from the positive and negative controls to give percent enzyme activities. The data were then fit to a dose response equation using the program Helios (Novartis) to get the IC50 values of the test compound. Helios is a Novartis in-house assay data analysis software using the methods described by Normolle, D. P., Statistics in Medicine, 12:2025-2042 (1993); Formenko, I. et al., Computer Methods and programs in Biomedicine, 82, 31-37 (2006); Sebaugh, J. L., Pharmaceutical Statistics, 10:128-134 (2011); Kelly, C. et al., Biometrics, 46(4):1071-1085 (1990); and Kahm, M, et al., Journal of Statistical Software, 33(7):(2010) (grofit: Fitting Biological Growth Curves with R, pages 1-21, available at http://www.jstatsoft.org/).

In a further test the test system is MV4-11 cells. As to the kind of experiment: MV4-11 6-day cell growth CTG (CellTiter-Glo) assay. Format: cell-based. Particulars: Homo sapiens, MV4-11, 144 h, 6 days, read-out: (c) MLL/WDR5 cell proliferation assay//MLL/WDR5 proliferation MV4:11 Qualified AC50. Here is the method: MV4-11 6-Day Cell Growth CTG (CellTiter-Glo) Assay
Acute myeloid leukemia cell MV4-11 (ATCC® CRL-9591™) was cultured with RPMI 1640 medium (Thermo Fisher Scientific, cat #11875) supplemented with 10% FBS (Thermo Fisher Scientific, cat #10099141) in humidified incubator at 37° C., 5% CO2. To assess the effect of WDR5 inhibitor on cell growth, the compound of the present invention was dissolved in DMSO and serially diluted at 1:3 for 12 points starting from 10 mM then 200 nL for the replicate of each dose per well was dispensed to Viewplate-384 Black (Perkin Elmer). Exponentially growing MV4-11 cells were seeded at the density of 300 cells per well in 40 μL to the plate, so the final compound working concentration starts from 50 μM. After 6 days, 40 μL CellTiter-Glo (Promega, cat #G7573) was added into the cell culture well and luminescence was read with Envision (Perkin Elmer) to determine the viable cells. The percentage inhibition was calculated against the samples treated with DMSO only and the data were used for dose response curve fitting in GraphPad Prism to get the IC50 of representative compound of present invention, which reflects the inhibition of WDR5 activity in the proliferation of MV4;11.
For orientation: ATP-based viability assays read luminescence as a measure of living cells.

A value given as a limit tells only on which side of the number the result lay.

`CNc1nccn1Cc1cc2c(c(C3CC3)c1)CCN(Cc1cnc(F)c(OC)c1)C2=O` [Example 79, 5-cyclopropyl-2-((6-fluoro-5-methoxypyridin-3-yl)methyl)-7-((2-(methylamino)-1H-imidazol-1-yl)methyl)-3,4-dihydroisoquinolin-1(2H)-one]: at WDR5, the IC50 was 10 to 1000 nM. The AC50 (in test [1]; with MV4-11 cells) was 10 to 1000 nM throughout.

For `CCOc1cc(CN2CCc3c(cc(CCN(C)CC)cc3-c3cc(C)nnc3C)C2=O)ncc1C#N` [Example 189, 6-((5-(3,6-dimethylpyridazin-4-yl)-7-(2-(ethyl(methyl)amino)ethyl)-1-oxo-3,4-dihydroisoquinolin-2(1H)-yl)methyl)-4-ethoxynicotinonitrile], on WDR5, the IC50 is below 10 nM. The AC50 (in test [1]; with MV4-11 cells) was 10 to 1000 nM each time.

Turning to `CCOc1cc(CN2CCc3c(CN4CC(C)C4)cc(Cn4ccnc4NC)cc3C2=O)cnc1C#N` [Example 25, 3-ethoxy-5-((7-((2-(methylamino)-1H-imidazol-1-yl)methyl)-5-((3-methylazetidin-1-yl)methyl)-1-oxo-3,4-dihydroisoquinolin-2(1H)-yl)methyl)picolinonitrile], the IC50 at WDR5 lay in the range of 10 to 1000 nM. Also, the AC50 (in test [1]; with MV4-11 cells) was 10 to 1000 nM throughout.

On to `CCOc1cc([C@H](C)N2CCc3c(CN4CCOCC4)cc(Cn4ccnc4NC)cc3C2=O)ncc1Cl` [Example 23, (S)-2-(1-(5-chloro-4-ethoxypyridin-2-yl)ethyl)-7-((2-(methylamino)-1H-imidazol-1-yl)methyl)-5-(morpholinomethyl)-3,4-dihydroisoquinolin-1(2H)-one], for which, on WDR5, the IC50 lay within 10 to 1000 nM. Also, the AC50 (in test [1]; in the test with MV4-11 cells) was 10 to 1000 nM throughout.

In the case of `CCOc1cc([C@H](C)N2CCc3c(cc(CCN(C)CCO)cc3-c3cn(C)c(=O)cc3Cl)C2=O)ncc1C#N` [Example 238], the IC50 at WDR5 was below 10 nM. Further, the AC50 (in test [1]; in the test on MV4-11 cells) was 10 to 1000 nM each time.

As for `CCOc1cc([C@H](C)N2CCc3c(cc(Cn4ccnc4C)cc3-c3nn(C)nc3C)C2=O)ncc1C#N` [Example 290], the IC50 at WDR5 is below 10 nM. Also, the AC50 (in test [1]; in the test on MV4-11 cells) was 10 to 1000 nM throughout.

For the molecule `CCOc1cc([C@H](C)N2CCc3c(cc(CCN4CC[C@H]4CO)cc3-c3ccc(F)nc3C)C2=O)ncc1C#N` [Example 243], at WDR5, the IC50 is 10 to 1000 nM. In addition, the AC50 (in test [1]; with MV4-11 cells) was 10 to 1000 nM throughout.

For `CCOc1cc([C@H](C)N2CCc3c(CN(C)C4CC4)cc(Cn4ccnc4NC)cc3C2=O)ncc1C#N` [Example 18, (S)-6-(1-(5-((cyclopropyl(methyl)amino)methyl)-7-((2-(methylamino)-1H-imidazol-1-yl)methyl)-1-oxo-3,4-dihydroisoquinolin-2(1H)-yl)ethyl)-4-ethoxynicotinonitrile], at WDR5, the IC50 is 10 to 1000 nM. The AC50 (in test [1]; in the test with MV4-11 cells) was 10 to 1000 nM each time.

Regarding `CCOc1cc(CN2CCc3c(cc(Cn4ccnc4C)cc3-c3cn(S(C)(=O)=O)nc3C)C2=O)ncc1C#N` [Example 301], the IC50 on WDR5 was below 10 nM. In test [1], the AC50 is 10 to 1000 nM.

`CNc1nccn1Cc1cc(CN2CC(F)C2)c2c(c1)C(=O)N([C@@H](C)c1cc(OC)c(F)cn1)CC2` [Example 42]: on WDR5, the IC50 was 10 to 1000 nM. The AC50 (in test [1]; with MV4-11 cells) was 10 to 1000 nM throughout.

As to `CNc1nccn1Cc1cc(CN2CC(F)(F)C2)c2c(c1)C(=O)N([C@@H](C)c1cc(OC)c(F)cn1)CC2` [Example 48, (S)-5-((3,3-difluoroazetidin-1-yl)methyl)-2-(1-(5-fluoro-4-methoxypyridin-2-yl)ethyl)-7-((2-(methylamino)-1H-imidazol-1-yl)methyl)-3,4-dihydroisoquinolin-1(2H)-one], the IC50 on WDR5 lay in the range of 10 to 1000 nM. In addition, the AC50 (in test [1]; in the test on MV4-11 cells) was 10 to 1000 nM in each case.

For `CNc1nccn1Cc1cc2c(c(C(F)F)c1)CCN([C@@H](C)c1cnc(F)c(OC)c1)C2=O` [Example 93, (S)-5-(difluoromethyl)-2-(1-(6-fluoro-5-methoxypyridin-3-yl)ethyl)-7-((2-(methylamino)-1H-imidazol-1-yl)methyl)-3,4-dihydroisoquinolin-1(2H)-one], the IC50 on WDR5 fell in the range of 10 to 1000 nM. Moreover, the AC50 (in test [1]; with MV4-11 cells) was 10 to 1000 nM each time.

With `CCOc1cc(C(C)N2CCc3c(cc(CCN(C)CC)cc3-n3cccn3)C2=O)ncc1C#N` (stereo not shown) [Example 209], on WDR5, the IC50 fell in the range of 10 to 1000 nM. Moreover, the AC50 in test [1] was in the range of 10 to 1000 nM.

For the molecule `CNc1nccn1Cc1ccc2ncn(C(C)c3cnc(F)c(OC)c3)c(=O)c2c1` (stereo not shown) [Example 110, 3-(1-(6-fluoro-5-methoxypyridin-3-yl)ethyl)-6-((2-(methylamino)-1H-imidazol-1-yl)methyl)quinazolin-4(3H)-one], the IC50 at WDR5 was 10 to 1000 nM. In test [1], the AC50 fell in the range of 10 to 1000 nM.

In the case of `CCOc1cc([C@H](C)N2CCc3c(cc(Cn4ccnc4C)cc3-c3c[nH]nc3C)C2=O)ncc1C#N` [Example 302], the IC50 at WDR5 is below 10 nM.

Regarding `CNc1nccn1Cc1ccc2cnn(C(C)c3cnc(F)c(OC)c3)c(=O)c2c1` (stereo not shown) [Example 109, 2-(1-(6-fluoro-5-methoxypyridin-3-yl)ethyl)-7-((2-(methylamino)-1H-imidazol-1-yl)methyl)phthalazin-1(2H)-one], the IC50 on WDR5 lay within 10 to 1000 nM. In addition, the AC50 in test [1] fell in the range of 10 to 1000 nM.

As to `CCOc1cc(CN2CCc3c(cc(Cn4ccnc4C)cc3-c3cc(C)nn3C)C2=O)ncc1C#N` [Example 300], the IC50 on WDR5 is below 10 nM. Further, the AC50 in test [1] was 10 to 1000 nM.

Take `CCOc1cc(C(C)N2CCc3c(cc(CCN(C)CC)cc3C3=CCNCC3)C2=O)ncc1C#N` (stereo not shown) [Example 159, 4-ethoxy-6-(1-(7-(2-(ethyl(methyl)amino)ethyl)-1-oxo-5-(1,2,3,6-tetrahydropyridin-4-yl)-3,4-dihydroisoquinolin-2(1H)-yl)ethyl)nicotinonitrile]: the IC50 on WDR5 lay within 10 to 1000 nM. Also, the AC50 in test [1] fell in the range of 1000 to 25000 nM.
